Laboratory results published in article PMC10046907 (Current Issues in Molecular Biology, 2023).
Where two headings read alike, the source gives them in different places.

Legend:
ERK phosphorylation = assay: Western blot of p-ERK in influenza-infected MDCK cells; format: cell-based, canine; conditions: 10 h; for viral-infection-induced ERK phosphorylation: 20 μM
influenza vRNA (NP gene) = format: cell-based, influenza virus
A/PR/8/34 (H1N1) [1] = assay: in vitro; conditions: dog, SI (selective index, CC50/IC50)
influenza vRNA (M gene) = format: cell-based, influenza virus; conditions: 20 μM, all virus strains, at 12 and 18 h, vs infected/untreated cells (0.5% DMSO)
in vitro = conditions: dog
influenza virus NS1 = format: cell-based
A/PR/8/34 (H1N1) [2] = conditions: dog
influenza virus NP = format: cell-based
[3] = tested on: influenza RNP export from the nucleus to the cytoplasm; assay: Confocal fluorescence imaging of influenza RNP nuclear export; format: cell-based, influenza virus (H1N1); conditions: 20 μM, H1N1-infected MDCK cells, 10 h
Experimental: MDCK cells were grown on a chamber slide, pre-coated with poly-L-lysine, and the monolayers were infected with influenza virus at 0.001 MOI for 1 h. The virus was removed and replaced by EMEM containing 10 μg/mL trypsin and each compound under test. All cells were cultured for 10 h at 37 °C in a 5% CO2 atmosphere and fixed in 4% paraformaldehyde solution for 15 min at room temperature. After washing, the cells were incubated at 37 °C for 1 h with an FITC-conjugated nucleoprotein (NP)-specific monoclonal antibody against influenza virus (Millipore, MA, USA) diluted at 1:50. After washing with PBS, cells were counterstained with 500 nM propidium iodide solution. Slides were mounted using the SlowFade Gold antifade reagent (Invitrogen, CA, USA). Confocal fluorescence imaging was performed using the Carl Zeiss LSM 510 META confocal microscope (Carl Zeiss Inc., Jena, Germany).
Figure 3 18-Hydroxyferruginol (1) and 18-oxoferruginol (2) inhibit the export of the influenza virus RNP complex from the nucleus to the cytoplasm. MDCK cells were infected with H1N1 at 0.001 MOI in the presence of 0.5% DMSO, 50 μM LY294002, 20 μM 18-hydroxyferruginol (1), or 20 μM 18-oxoferruginol (2). After 10 h, the cells were fixed in 4% paraformaldehyde. After blocking, the cells were incubated with the anti-NP antibody (green). Propidium iodide was used as a nuclear counterstain (red). Scale bar = 10 µm.

[4] = tested on: A/Chicken/Korea/MS96/96 (H9N2); assay: microbe, parasite or virus in culture; conditions: Influenza A virus, H9N2, MDCK, in Gallus gallus, 72 h
[5] = tested on: phosphorylation of MEK1/2; assay: Western blot of p-MEK1/2 in influenza-infected MDCK cells; format: cell-based, canine; conditions: 20 μM, 10 h, all strains
[6] = tested on: A/Chicken/Korea/MS96/96 (H9N2); assay: in vitro; conditions: dog, SI (selective index, CC50/IC50)
A/PR/8/34 (H1N1) [7] = assay: microbe, parasite or virus in culture; conditions: Influenza A virus, MDCK, 72 h
[8] = target: neuraminidase from A/Chicken/Korea/MS96/96 (H9N2) (Influenza A virus (A/Chicken/Korea/MS96/96(H9N2)), UniProt Q9J458); format: biochemical, influenza A viruses; conditions: read-out: Neuraminiase IC50
[9] = tested on: A/Chicken/Korea/MS96/96 (H9N2); conditions: dog
[10] = target: neuraminidase from A/PR/8/34 (H1N1) (Influenza A virus, UniProt P03468); assay: biochemical; parameters: species or system influenza A viruses
p-Akt (Serine 473) = assay: Western blot of p-Akt in influenza-infected MDCK cells; format: cell-based, canine; conditions: 20 μM, after viral infection, vs viral-infected/untreated cells
A/Hong Kong/8/68 (H3N2) [11] = assay: microbe, parasite or virus in culture; conditions: Influenza A virus, H3N2, MDCK, 72 h
A/Hong Kong/8/68 (H3N2) [12] = conditions: dog
A/Hong Kong/8/68 (H3N2) [13] = assay: in vitro; conditions: dog, SI (selective index, CC50/IC50)
[14] = 20 μM, all three strains, 10 h after infection

Sequence of neuraminidase from A/PR/8/34 (H1N1) (P03468 whole entry, looked up): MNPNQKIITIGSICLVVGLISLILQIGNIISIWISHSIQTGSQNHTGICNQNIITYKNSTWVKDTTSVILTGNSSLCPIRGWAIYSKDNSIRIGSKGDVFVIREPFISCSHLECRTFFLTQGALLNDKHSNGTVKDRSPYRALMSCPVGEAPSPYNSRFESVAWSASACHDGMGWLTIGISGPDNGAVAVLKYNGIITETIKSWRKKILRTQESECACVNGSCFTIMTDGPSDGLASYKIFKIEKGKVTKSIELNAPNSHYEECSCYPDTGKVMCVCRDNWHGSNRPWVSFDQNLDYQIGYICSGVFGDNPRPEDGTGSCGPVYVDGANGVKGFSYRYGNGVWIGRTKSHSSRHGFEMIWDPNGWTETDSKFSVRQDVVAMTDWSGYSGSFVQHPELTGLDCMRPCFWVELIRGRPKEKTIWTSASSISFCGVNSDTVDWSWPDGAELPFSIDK

Row | SMILES | selectivity ratio (A/PR/8/34 (H1N1) [1]) | toxic effect on MDCK cells (MDCK cells) | decrease of influenza vRNA levels (M gene) (influenza vRNA (M gene)) | CC50 (in vitro) | accumulation of viral protein NS1 (influenza virus NS1) | SI (selective index, CC50/IC50) (A/PR/8/34 (H1N1) [2]) | levels of influenza virus NP (influenza virus NP) | influenza RNP export from the nucleus to the cytoplasm [3] | IC50 [4] | viral-infection-induced ERK phosphorylation (ERK phosphorylation) | reduction of influenza vRNA levels (NP gene) (influenza vRNA (NP gene); [14]) | phosphorylation of MEK1/2 induced by infection [5] | selectivity ratio [6] | IC50 (A/PR/8/34 (H1N1) [7]) | IC50 [8] | SI (selective index, CC50/IC50) [9] | IC50 [10] | p-Akt levels (p-Akt (Serine 473)) | IC50 (A/Hong Kong/8/68 (H3N2) [11]) | also measured
1 | O=c1cc(N2CCOCC2)oc2c(-c3ccccc3)cccc12 [LY294002, reference compound] |  |  |  |  |  |  |  |  |  |  |  |  |  |  |  |  |  |  |  | ERK phosphorylation (ERK phosphorylation; 50 μM): strongly inhibited ERK phosphorylation; reduction of influenza vRNA levels (NP gene) (influenza vRNA (NP gene); 50 μM, all three strains, 10 h after infection): 3.3–5.2 fold
2 | CC(C)c1cc2c(cc1O)[C@@]1(C)CCC[C@@](C)(CO)[C@@H]1CC2 [Compound 1, 18-hydroxyferruginol] | 1.68 | no toxic effect | 65.3–91.6% | 35.5 ± 0.4 µM | markedly decreased | 2.61 | reduction in the levels of influenza virus NP | reduction in influenza RNP export from the nucleus to the cytoplasm | 12.8 ± 0.1 µM | inhibited viral-infection-induced ERK phosphorylation | 2–2.5 fold | inhibited | 1.79 | 13.6 ± 1.4 µM | 82.2 µM | 2.77 | > 100 µM | decreased p-Akt levels |  | 
3 | COc1cccc(-c2cc(=O)c3ccccc3o2)c1N [PD98059, reference compound] |  |  |  |  |  |  |  |  |  |  |  |  |  |  |  |  |  |  |  | reduction of influenza vRNA levels (NP gene) (influenza vRNA (NP gene)): 4.3–9.1 fold
4 | CC(C)c1cc2c(cc1O)[C@@]1(C)CCC[C@@](C)(C=O)[C@@H]1CC2 [Compound 2, 18-oxoferruginol] | 2.13 | no toxic effect | 60.7–92.4% | 41.2 ± 1.5 µM | markedly decreased | 2.25 | reduction in the levels of influenza virus NP | reduction in influenza RNP export from the nucleus to the cytoplasm | 10.8 ± 2.2 µM | inhibited viral-infection-induced ERK phosphorylation | 2–3 fold | inhibited | 3.6 | 18.3 ± 6.5 µM | > 100 µM | 3.81 | > 100 µM | decreased p-Akt levels | 29.2 ± 1.9 µM | SI (selective index, CC50/IC50) (A/Hong Kong/8/68 (H3N2) [12]): 1.41; selectivity ratio (A/Hong Kong/8/68 (H3N2) [13]): 1.33
5 | CCOC(=O)C1=C[C@@H](OC(CC)CC)[C@H](NC(C)=O)[C@@H](N)C1 [Olseltamivir, oseltamivir, reference compound] |  |  |  | > 500 µM |  |  |  |  | < 0.7 µM |  |  |  |  | 1.35 ± 1.2 µM |  |  |  |  | 1.09 ± 0.5 µM | 
